Holding throughout (experiment): inhibition of tumour cell growth, NCI panel, 48 h
In assay [1] the test system is A549.
Assay [2] deals with OVCAR-3.
For assay [3], the system named is OVCAR-4.
For assay [4], the system named is CCRF-CEM.
Assay [5] deals with RPMI-8226.
Assay [6] has as its system K562.
In assay [7] the test system is EKVX.
For assay [8], the system named is CAKI-1.
Assay [9] has as its system SNB-75.
Assay [10] concerns HCT-15.
For assay [11], the system named is UO-31.
Assay [12] relates to NCI-H460.
Assay [13] has as its system M14.
For assay [14], the system named is Malme-3M.
Assay [15] has as its system SR.
The test system of assay [16] is HOP-62.
Assay [17] concerns NCI-H522.
In assay [18] the test system is NCI/ADR-RES.

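Method: 48-hour compound exposure of cells in 96-well plates, five concentrations, linear interpolation of endpoints. GI50 marks 50% less growth.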 Calls of active or inactive are those of the source. No stated cut-off is given here; in the data, active = GI50 up to about 1.1 µM and inactive = higher.

On to `O=C(N/C(=C\c1ccc2c(c1)OCO2)c1nc2ccccc2[nH]1)c1ccccc1`, for which the GI50 was 35.2 µM (inactive) in assay [1]; 24.7 µM (inactive) in assay [2]; 19.7 µM (inactive) in assay [3]; 26.9 µM (inactive) in assay [4]; 32.2 µM (inactive) in assay [5]; 24.3 µM (inactive) in assay [6]. In addition, the GI50 was 41.2 µM (inactive) in [7]; 33.6 µM (inactive) in assay [8]; 20.9 µM (inactive) in assay [9]; 35.6 µM in assay [10]; 24.6 µM (inactive) in assay [11]; 34.8 µM (inactive) in [12]. The GI50 in assay [13] was 25.1 µM (inactive); in assay [14] it was 34.2 µM (inactive); in assay [15], 21.9 µM (inactive); in [16] it was 24.5 µM (inactive); in assay [17], 14.7 µM (inactive).

On to `CC(=O)OCC(OC(C)=O)C(OC(C)=O)C(OC(C)=O)C(=O)CNn1c(-c2ccc(C)cc2)nc2ccccc2c1=O` (stereo not given), for which the GI50 was > 100 µM (inactive) in assay [1]; > 100 µM (inactive) in assay [2]; > 100 µM (inactive) in [3]; > 100 µM (inactive) in [4]; 39.4 µM (inactive) in [5]; > 100 µM (inactive) in assay [6]. Also, the GI50 is > 100 µM (inactive) in assay [7]; 90.2 µM (inactive) in [8]; 53.1 µM (inactive) in assay [9]; over 100 µM in [10]; > 100 µM (inactive) in [11]; > 100 µM (inactive) in assay [12]. Besides, the GI50 in [13] was > 100 µM (inactive); in [14] it was > 100 µM (inactive); in assay [15], 41.2 µM (inactive); in [16], > 100 µM (inactive); in [17], 57.9 µM (inactive).

In the case of `CCOC(=O)C1C(c2ccc(Br)cc2)N(Cc2ccccc2)C(c2ccc(Br)cc2)C(C(=O)OC)S1(=O)=O` (stereo not given), the GI50 in [1] was 76.9 µM (inactive); in assay [2], > 100 µM (inactive); in [3], 29.1 µM (inactive); in assay [4], 40.4 µM (inactive); in assay [5] it was 32.7 µM (inactive); in [6] it was 87.7 µM (inactive). Besides, the GI50 in assay [7] was > 100 µM (inactive); in assay [8], 77.1 µM (inactive); in assay [9], 21.3 µM (inactive); in assay [10] it was over 100 µM; in assay [11] it was 49.7 µM (inactive); in [12], > 100 µM (inactive). The GI50 in [13] was 83.4 µM (inactive); in assay [14], > 100 µM (inactive); in [15], 34.4 µM (inactive); in assay [16] it was > 100 µM (inactive); in [17], 50.6 µM (inactive).

`Cc1c2ccnc(C(N)=O)c2c(C)c2c1[nH]c1ccccc12`: the GI50 in [1] is 5.47 µM (inactive); in assay [2] it was 9.08 µM (inactive); in assay [3], 9.31 µM (inactive); in [4], 4.73 µM (inactive); in assay [5], 5.82 µM (inactive); in assay [6], 11 µM (inactive). Further, the GI50 was 10.6 µM (inactive) in [7]; 3.83 µM (inactive) in assay [8]; 10.6 µM (inactive) in assay [9]; 4.1 µM in [10]; 6.43 µM (inactive) in [11]; 3.81 µM (inactive) in assay [12]. Moreover, the GI50 in assay [18] is 5.65 µM (inactive); in [13] it was 6.58 µM (inactive); in assay [14], 6.15 µM (inactive); in assay [16] it was 5.97 µM (inactive); in assay [17] it was 7.59 µM (inactive).

For the compound `CCCNC(=O)C(C)(Cl)C(=O)c1ccccc1O` (stereo not given), the GI50 in [1], in [2], in assay [3], in assay [4], in assay [5] and in [6] was > 100 µM (inactive) in each case. For the same compound, the GI50 in assay [8] was > 100 µM (inactive); in assay [9], > 100 µM (inactive); in [10], over 100 µM; in assay [11], > 100 µM (inactive); in [12], > 100 µM (inactive); in [13], > 100 µM (inactive). Also, the GI50 in assay [14], in assay [15], in assay [16] and in [17] was > 100 µM (inactive) in each case.

With `COC(=O)[C@@H]1CSC(=S)N1C(=O)C[C@H]1CC=CC[C@H]1CC(=O)Sc1ccccc1`, the GI50 in assay [1] was 17.7 µM (inactive); in assay [2] it was 19.2 µM (inactive); in assay [3], > 10 µM (inactive); in [4] it was 3.04 µM (inactive); in [5] it was 12.5 µM (inactive); in [6], 12.1 µM (inactive). The GI50 is 17.4 µM (inactive) in assay [7]; > 10 µM (inactive) in assay [8]; 15.4 µM (inactive) in [9]; 16.2 µM in assay [10]; 13.8 µM (inactive) in assay [11]; 17.7 µM (inactive) in [12]. Moreover, the GI50 was 16.7 µM (inactive) in assay [13]; 21.5 µM (inactive) in [14]; 8.99 µM (inactive) in assay [15]; 20.7 µM (inactive) in assay [16]; 12 µM (inactive) in [17].

Turning to `N#Cc1nc(Nc2ccc(Cl)cc2)sc1N`, the GI50 is 10.7 µM (inactive) in [1]; 17.8 µM (inactive) in assay [2]; 24 µM (inactive) in [3]; 2.94 µM (inactive) in assay [4]; 2.34 µM (inactive) in assay [5]; 3.91 µM (inactive) in assay [6]. The GI50 is 24.2 µM (inactive) in assay [7]; 7.57 µM (inactive) in [8]; 28.8 µM (inactive) in assay [9]; 7.18 µM in [10]; 3.62 µM (inactive) in [11]; 16.4 µM (inactive) in assay [12]. In addition, the GI50 in assay [13] is 23.6 µM (inactive); in assay [14] it was 11.6 µM (inactive); in [15] it was 1.51 µM (inactive); in [16], 15 µM (inactive); in [17], 3.01 µM (inactive).

Turning to `Nc1nc(=O)c(/N=N/c2ccccc2)c(N)[nH]1`, the GI50 is 29.9 µM (inactive) in assay [1]; 71.8 µM (inactive) in assay [2]; > 100 µM (inactive) in assay [3]; 36.5 µM (inactive) in assay [4]; > 100 µM (inactive) in assay [5]; 11 µM (inactive) in assay [6]. Also, the GI50 in assay [8] is 66.7 µM (inactive); in assay [9], 3.78 µM (inactive); in assay [10], 30.5 µM; in assay [11] it was 42.4 µM (inactive); in [12], 24.6 µM (inactive); in assay [13], 28 µM (inactive). The GI50 is 15.3 µM (inactive) in assay [14], > 100 µM (inactive) in assay [15], 30.8 µM (inactive) in assay [16] and 47.4 µM (inactive) in assay [17].

`COc1ccccc1NC(=O)C1=C(C)NC(C)=C(C(=O)Nc2ccccc2OC)C1c1ccc([N+](=O)[O-])cc1`: the GI50 in [1] is > 100 µM (inactive); in [2] it was > 100 µM (inactive); in [3], 56.2 µM (inactive); in assay [4], 19.5 µM (inactive); in assay [5], 18.5 µM (inactive); in assay [6], 49.3 µM (inactive). Also, the GI50 in assay [7] is 82.6 µM (inactive); in assay [8] it was 21.7 µM (inactive); in assay [9], > 100 µM (inactive); in assay [10], over 100 µM; in assay [12], 28.8 µM (inactive); in [13] it was 85.7 µM (inactive). Moreover, the GI50 in assay [14] was > 100 µM (inactive); in assay [15], 67.5 µM (inactive); in assay [16] it was > 100 µM (inactive); in [17], 24.4 µM (inactive).

Turning to `O=C1CC2CCN(C(=O)c3ccccc3)CC2CCN1.O=C1CCC2CC(C(=O)c3ccccc3)CCC2CN1` (stereo not given), the GI50 in [1], in assay [2], in assay [3], in [4], in assay [5] and in assay [6] was > 100 µM (inactive) each time. The GI50 in [7] is > 100 µM (inactive); in [8] it was > 100 µM (inactive); in assay [9], > 100 µM (inactive); in [10] it was over 100 µM; in [11] it was > 100 µM (inactive); in assay [12] it was > 100 µM (inactive). Further, the GI50 in assay [13], in assay [14], in assay [15], in [16] and in assay [17] was > 100 µM (inactive) throughout.

As to `Nc1nc(SCCC/C=C/B(O)O)nc2c1ncn2C1OC(COP(=O)(O)O)C(O)C1O` (stereo not given), the GI50 in assay [1], in [2], in assay [3], in assay [4], in [5] and in assay [6] was > 203 µM (inactive) in each case. Moreover, the GI50 in assay [8] is > 203 µM (inactive); in assay [9], > 203 µM (inactive); in assay [10], over 203 µM; in assay [11], > 203 µM (inactive); in assay [12], > 203 µM (inactive); in [13], > 203 µM (inactive). In addition, the GI50 in assay [14] was > 203 µM (inactive); in [15] it was > 203 µM (inactive); in assay [16] it was > 203 µM (inactive); in assay [17], 115 µM (inactive).

As to `CCOC(=O)c1s/c(=N\Nc2nc3ccccc3cc2C2OCCO2)n(Cc2ccccc2)c1C`, the GI50 in assay [1], in [2], in [3], in assay [4], in [5] and in assay [6] was > 100 µM (inactive) in each case. Moreover, the GI50 in [7] is > 100 µM (inactive); in [8], > 100 µM (inactive); in [9] it was > 100 µM (inactive); in assay [10] it was over 100 µM; in assay [11], > 100 µM (inactive); in assay [12], > 100 µM (inactive). The GI50 in assay [13] was > 100 µM (inactive); in assay [14], > 100 µM (inactive); in assay [15], 4.65 µM (inactive); in assay [16], > 100 µM (inactive); in assay [17], > 100 µM (inactive).

(Values after ChEMBL document CHEMBL1201862, “PubChem BioAssay data set” (2004).)
